Test [1] addresses hMetAP2 (Homo sapiens, UniProt P50579). Briefly: MetAP2 enzyme assay. The test is classed as biochemical.
Test [2] concerns HFF. Briefly: HFF inhibition (selectivity). The class given is cell-based, human.
Test [3] deals with HUVEC. Nature of the test: HUVEC inhibition (selectivity). The class given is cell-based, human.
Test [4] addresses hMetAP1 (Homo sapiens, UniProt P53582). Briefly: MetAP1 enzyme assay. The class given is biochemical.
[5] abbreviates: Co2+ as metal ion, Table 1, read-out: hMetAP2 CO^2+ IC50.
The mark [6] stands for this setting: Mn2+ as metal ion, Table 1, read-out: hMetAP2 Mn^2+ IC50.
The mark [7] stands for this setting: Co2+ as metal ion, Table 1, read-out: hMetAP1 CO^2+ IC50.
Setting [8] is: Mn2+ as metal ion, Table 1, read-out: hMetAP1 Mn^2+ IC50.
[9] abbreviates: Co2+ as metal ion, Table 2, read-out: hMetAP2 Co^2+ IC50.
[10] abbreviates: Mn2+ as metal ion, Table 2, read-out: hMetAP2 Mn^2+ IC50.
Where [11] appears, read: Co2+ as metal ion, Table 2, read-out: hMetAP1 Co^2+ IC50.
Setting [12] is: Mn2+ as metal ion, Table 2, read-out: hMetAP1 Mn^2+ IC50.

Where two headings read alike, the source gives them in different places. A value given as a limit tells only on which side of the number the result lay.

For orientation: IC50 means the concentration that inhibits the measured activity by half.

hMetAP2, sequence (P50579 whole entry): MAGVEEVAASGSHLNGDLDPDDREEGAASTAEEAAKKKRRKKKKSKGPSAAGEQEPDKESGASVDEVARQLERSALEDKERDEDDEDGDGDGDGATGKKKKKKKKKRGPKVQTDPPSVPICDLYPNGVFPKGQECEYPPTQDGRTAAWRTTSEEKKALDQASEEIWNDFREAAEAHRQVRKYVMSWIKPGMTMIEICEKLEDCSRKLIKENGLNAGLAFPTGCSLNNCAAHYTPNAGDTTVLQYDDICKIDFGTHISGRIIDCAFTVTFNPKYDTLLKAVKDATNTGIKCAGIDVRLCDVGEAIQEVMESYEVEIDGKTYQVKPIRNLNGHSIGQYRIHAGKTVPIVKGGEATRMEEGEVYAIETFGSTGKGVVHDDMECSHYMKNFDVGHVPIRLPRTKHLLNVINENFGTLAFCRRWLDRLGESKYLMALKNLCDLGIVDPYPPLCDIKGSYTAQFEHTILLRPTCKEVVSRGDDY

For `OCCOc1ccc(Cl)c2cccnc12` [Entry 3b], the IC50 in test [1] was more than 50 µM; in test [1] (read-out: hMetAP2 CO^2+ IC50, Co2+ as metal ion, Table 1), more than 50 µM; in test [2] (Homo sapiens, Table 1), more than 50 µM; in test [3] (Homo sapiens, Table 1), more than 50 µM; in test [4] it was more than 50 µM; in test [4] (read-out: hMetAP1 CO^2+ IC50, Co2+ as metal ion, Table 1) it was more than 50 µM.
As for `Oc1c(C(c2ccccc2)N2CCOCC2)cc(Cl)c2cccnc12` (stereo not drawn) [Entry 2f], the IC50 in test [1] (setting [5]) was 8 µM; in test [1] (setting [6]), 0.33 µM; in test [2] (Homo sapiens, Table 1), 19.2 µM; in test [3] (Homo sapiens, Table 1) it was 8.6 µM; in test [4] (setting [7]) it was 14 µM; in test [4] (setting [8]), more than 50 µM.
As to `O=C(Nc1cc(Cl)ccc1Cl)Oc1c(Cl)cc(Cl)c2cccnc12` [Entry 4b], the half-maximal inhibitory concentration (IC50) was more than 50 µM in test [1] (setting [9]); 0.9 µM in test [1] (setting [10]); 3 µM in test [2] (Table 2); 0.11 µM in test [3] (Table 2); more than 50 µM in test [4] (setting [11]); more than 50 µM in test [4] (setting [12]).
With `O=C(Nc1cc(Cl)c(Cl)cc1Cl)Oc1c(Cl)cc(Cl)c2cccnc12` [Entry 4a], the 50% inhibitory concentration (IC50) was more than 50 µM in test [1] (setting [9]); 2.6 µM in test [1] (setting [10]); 4.9 µM in test [2] (Table 2); 1.3 µM in test [3] (Table 2); more than 50 µM in test [4] (setting [11]); more than 50 µM in test [4] (setting [12]).
As to `Oc1c(CN2CCCCC2)cc(Cl)c2cccnc12` [Entry 2b], the half-inhibitory concentration (IC50) in test [4] (setting [7]) and in test [4] (setting [8]) was more than 50 µM each time.
`C=CCOc1ccc(Cl)c2cccnc12` [Entry 3a]: the IC50 in test [2] (Homo sapiens, Table 1) is more than 50 µM; in test [3] (Homo sapiens, Table 1), more than 50 µM.
For the molecule `O=C(Nc1cc(Cl)ccc1Cl)Oc1ccc(Cl)c2cccnc12` [Entry 4c], the 50% inhibitory concentration (IC50) in test [1] (setting [9]) was 2.2 µM; in test [1] (setting [10]), 0.07 µM; in test [2] (Table 2) it was 8 µM; in test [3] (Table 2), 1.2 µM; in test [4] (setting [11]), more than 50 µM; in test [4] (setting [12]) it was 12.6 µM.
For `Oc1c(CN2CCOCC2)ccc2cccnc12` [Entry 2c], the half-inhibitory concentration (IC50) in test [1] (setting [5]) was more than 50 µM; in test [1] (setting [6]), 15.2 µM; in test [2] (Homo sapiens, Table 1), 9.8 µM; in test [3] (Homo sapiens, Table 1), 33.3 µM; in test [4] (setting [7]), more than 50 µM; in test [4] (setting [8]), more than 50 µM.
In the case of `CN1CCN(Cc2cc(Cl)c3cccnc3c2O)CC1` [Entry 2e], the IC50 in test [2] (Table 1) came to 15 µM; in test [3] (Table 1), 9.6 µM.
Regarding `OCCN(CCO)Cc1cc(Cl)c2cccnc2c1O` [Entry 2a], the IC50 in test [1] (setting [6]) is 28 µM; in test [2] (Homo sapiens, Table 1), 0.8 µM; in test [3] (Homo sapiens, Table 1) it was 10.7 µM.

Values taken from patent US20130210821A1, “Methods for Treating Obesity” (priority 2010, published 2013).
